Reference: the supplement of paper PMC8612539
Converted amounts (≈) assume the structure as drawn.

System: Histophilus somni
Test: minimum inhibitory concentration (MIC)
Description: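 Broth microdilution MIC (Sensititre BOPO7F bovine plate, CLSI methods) of 19 antimicrobials against field isolates of P. multocida, M. haemolytica, H. somni (deep nasopharyngeal swabs) and E. coli, Enterococcus spp. (rectal swabs) from weaned dairy heifers. Incubation 16-24 h at 35 C. MIC is the lowest concentration preventing visible growth. Values with <= or > lie at the tested range limits. Trimethoprim-sulfamethoxazole is given as the trimethoprim component of a 1:19 mixture.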

CN(C)[C@@H]1C(O)=C(C(N)=O)C(=O)[C@@]2(O)C(O)=C3C(=O)c4c(O)cccc4[C@@](C)(O)[C@H]3C[C@@H]12 [Tetracycline]
Settings | minimum inhibitory concentration [µg/mL]
isolate (source animal id): 3 | 4 (≈ 9 µM)
isolate (source animal id): 4 | 4 (≈ 9 µM)
isolate (source animal id): 7 | 8 (≈ 18 µM)
isolate (source animal id): 14 | 8 (≈ 18 µM)
isolate (source animal id): 15 | 4 (≈ 9 µM)
isolate (source animal id): 17 | 8 (≈ 18 µM)
isolate (source animal id): 18 | 8 (≈ 18 µM)
isolate (source animal id): 20 | 4 (≈ 9 µM)
isolate (source animal id): 23 | ≤ 0.5
isolate (source animal id): 45 | > 8
isolate (source animal id): 53 | > 8
isolate (source animal id): 83 | 2 (≈ 4.5 µM)
isolate (source animal id): 88 | 8 (≈ 18 µM)
isolate (source animal id): 92 | 8 (≈ 18 µM)
isolate (source animal id): 93 | 8 (≈ 18 µM)
isolate (source animal id): 99 | 4 (≈ 9 µM)
isolate (source animal id): 100 | 4 (≈ 9 µM)
isolate (source animal id): 105 | 2 (≈ 4.5 µM)
isolate (source animal id): 107 | 4 (≈ 9 µM)
isolate (source animal id): 108 | 8 (≈ 18 µM)
isolate (source animal id): 109 | 4 (≈ 9 µM)
isolate (source animal id): 110 | 4 (≈ 9 µM)
isolate (source animal id): 117 | 8 (≈ 18 µM)
isolate (source animal id): 121 | 8 (≈ 18 µM)
isolate (source animal id): 123 | 4 (≈ 9 µM)
isolate (source animal id): 124 | 2 (≈ 4.5 µM)
isolate (source animal id): 127 | 1 (≈ 2.25 µM)
isolate (source animal id): 128 | > 8
isolate (source animal id): 130 | 2 (≈ 4.5 µM)
isolate (source animal id): 132 | > 8
isolate (source animal id): 135 | > 8
isolate (source animal id): 140 | > 8
isolate (source animal id): 141 | ≤ 0.5
isolate (source animal id): 142 | 1 (≈ 2.25 µM)
isolate (source animal id): 144 | 2 (≈ 4.5 µM)
isolate (source animal id): 146 | > 8
isolate (source animal id): 147 | 1 (≈ 2.25 µM)
isolate (source animal id): 151 | > 8
isolate (source animal id): 153 | 4 (≈ 9 µM)
isolate (source animal id): 154 | 1 (≈ 2.25 µM)
isolate (source animal id): 156 | 2 (≈ 4.5 µM)
isolate (source animal id): 157 | 4 (≈ 9 µM)
isolate (source animal id): 176 | 4 (≈ 9 µM)
isolate (source animal id): 183 | 4 (≈ 9 µM)
isolate (source animal id): 186 | 4 (≈ 9 µM)
isolate (source animal id): 196 | 4 (≈ 9 µM)
isolate (source animal id): 198 | 2 (≈ 4.5 µM)
isolate (source animal id): 200 | 4 (≈ 9 µM)
isolate (source animal id): 206 | 4 (≈ 9 µM)
isolate (source animal id): 208 | 4 (≈ 9 µM)
isolate (source animal id): 210 | 1 (≈ 2.25 µM)
isolate (source animal id): 212 | 1 (≈ 2.25 µM)
isolate (source animal id): 215 | 4 (≈ 9 µM)
isolate (source animal id): 216 | 4 (≈ 9 µM)
isolate (source animal id): 218 | 2 (≈ 4.5 µM)
isolate (source animal id): 219 | 2 (≈ 4.5 µM)
isolate (source animal id): 224 | 4 (≈ 9 µM)
isolate (source animal id): 228 | 8 (≈ 18 µM)
isolate (source animal id): 230 | 4 (≈ 9 µM)
isolate (source animal id): 233 | > 8
isolate (source animal id): 238 | ≤ 0.5
isolate (source animal id): 239 | > 8
isolate (source animal id): 241 | 4 (≈ 9 µM)
isolate (source animal id): 242 | 4 (≈ 9 µM)
isolate (source animal id): 243 | ≤ 0.5
isolate (source animal id): 245 | > 8
isolate (source animal id): 246 | ≤ 0.5
isolate (source animal id): 247 | 4 (≈ 9 µM)
isolate (source animal id): 248 | ≤ 0.5
isolate (source animal id): 250 | 8 (≈ 18 µM)
isolate (source animal id): 251 | > 8
isolate (source animal id): 252 | 4 (≈ 9 µM)
isolate (source animal id): 254 | 4 (≈ 9 µM)
isolate (source animal id): 258 | 4 (≈ 9 µM)
isolate (source animal id): 259 | 4 (≈ 9 µM)
isolate (source animal id): 262 | > 8
isolate (source animal id): 264 | 1 (≈ 2.25 µM)
isolate (source animal id): 265 | > 8
isolate (source animal id): 266 | 2 (≈ 4.5 µM)
isolate (source animal id): 267 | 2 (≈ 4.5 µM)
isolate (source animal id): 269 | 1 (≈ 2.25 µM)
isolate (source animal id): 271 | 2 (≈ 4.5 µM)
isolate (source animal id): 272 | > 8
isolate (source animal id): 274 | > 8
isolate (source animal id): 276 | ≤ 0.5
isolate (source animal id): 278 | 2 (≈ 4.5 µM)
isolate (source animal id): 280 | > 8
isolate (source animal id): 281 | 2 (≈ 4.5 µM)
isolate (source animal id): 283 | 2 (≈ 4.5 µM)
isolate (source animal id): 288 | 4 (≈ 9 µM)
isolate (source animal id): 291 | 8 (≈ 18 µM)
isolate (source animal id): 292 | 2 (≈ 4.5 µM)
isolate (source animal id): 296 | 1 (≈ 2.25 µM)
isolate (source animal id): 306 | 2 (≈ 4.5 µM)
isolate (source animal id): 336 | 2 (≈ 4.5 µM)
isolate (source animal id): 337 | 2 (≈ 4.5 µM)
isolate (source animal id): 341 | 1 (≈ 2.25 µM)
